The source of these data is patent US6355289B1, “Method for preserving tortillas made from corn or wheat” (Kemin Industries, Inc., priority 1996, dated 2002).

In series [1] the test system is bacteria, mold, and yeast. The experiment in a line: Carbon dioxide production of tortillas from treated dough. The settings on record: antimicrobial added to propionic/phosphoric acid preparation.
Description: In the laboratory, shelf life of varying formulations of tortillas can be compared by monitoring the output of carbon dioxide produced by the bacteria, mold, and yeast.
Tortillas were then manufactured from the treated dough.
For series [2] the following is noted: food pH 5.4; cited from earlier work.

`O=C(O)c1ccccc1` [benzoic acid]: in series [1], the “effectiveness in controlling fermented odor / preventing spoilage” value is “best qualities for preventing spoilage”. For the same molecule, the acid undissociated in series [2] was 7.75%. For the molecule `CCC(=O)O` [propionic acid], in series [2], the acid undissociated was 20%.
